Target: T1, human Edg-1(S1P1) (Homo sapiens, UniProt P21453)
T1 construct: expressed in transfected cells; host or cells: HEK-293
Assay: S1P1 Binding Test ([33P]-S1P, membrane fraction of HEK-293 cell line carrying the human Edg-1(S1P1) gene)
Conditions: [33P]-S1P 0.1 nM; for IC50: membrane binding test at various concentrations, read-out: IC50 value, Edg-1(S1P1) binding inhibition; for inhibition at 10 µM: compound at 10 μM, 30° C., 1 hour, read-out: inhibition rate of Edg-1(S1P1) binding
Protocol: The membrane fraction of a HEK-293 cell line carrying the human Edg-1(S1P1) gene was used to study the compounds of the present invention for their inhibitory effect on Edg-1(S1P1) binding, as described in Science. […] To obtain the membrane fraction, treatment with solubilizing buffer (1 mM Tris/HCl, pH 7.2) for 10 minutes on ice was performed, followed by centrifugation at 1000×g for 5 minutes to remove an insoluble fraction and then at 40000×g for 30 minutes at 4° C. The resulting membrane fraction was dissolved in binding buffer (20 mM Tris-HCl, pH 7.4, 100 mM NaCl, 15 mM NaF, 2 mM deoxypyridoxine, 4 mg/mL fatty acid-free BSA), followed by addition of binding buffer containing [^33P]-S1P (ARC, final concentration: 0.1 nM) and DMSO solution of a test compound (final concentration of the compound: 10^−5 M, final concentration of DMSO: 0.1%). After stirring, the reaction solution was incubated at 30° C. for 1 hour. The membrane fraction was collected onto a unifilter-96 GF/C filter (Perkin Elmer) using a harvester and washed four times with binding buffer, followed by drying the filter. After addition of 25 μL Microscint 0 (Perkin Elmer), radioactivity was measured with a Top Count NXT (Packard) to calculate amount (A), i.e., the amount of [^33P]-S1P binding to the membrane fraction in the presence of the compound.
The same procedure was performed in the absence of any test compound to calculate amount (B), i.e., the amount of [^33P]-S1P binding. Moreover, the same procedure was also performed with HEK-293 cells carrying no Edg-1(S1P1) gene in the absence of any test compound to calculate amount (C), i.e., the amount of background [^33P]-S1P binding.
The inhibition rate of Edg-1(S1P1) binding was calculated for each compound by the following equation. Inhibition rate (%)=[1−(A−C)/(B−C)]×100
Moreover, the activity of each test compound was calculated as a value (IC50 value) showing 50% of the radioactivity obtained in the absence of any test compound. Namely, the above membrane system binding test was performed in the presence of a test compound at various concentrations to calculate an IC50 value according to the dose-dependent inhibition curve analyzed with data analysis software, Origin (Lightstone Corp., Japan).

T1 sequence (P21453 whole entry): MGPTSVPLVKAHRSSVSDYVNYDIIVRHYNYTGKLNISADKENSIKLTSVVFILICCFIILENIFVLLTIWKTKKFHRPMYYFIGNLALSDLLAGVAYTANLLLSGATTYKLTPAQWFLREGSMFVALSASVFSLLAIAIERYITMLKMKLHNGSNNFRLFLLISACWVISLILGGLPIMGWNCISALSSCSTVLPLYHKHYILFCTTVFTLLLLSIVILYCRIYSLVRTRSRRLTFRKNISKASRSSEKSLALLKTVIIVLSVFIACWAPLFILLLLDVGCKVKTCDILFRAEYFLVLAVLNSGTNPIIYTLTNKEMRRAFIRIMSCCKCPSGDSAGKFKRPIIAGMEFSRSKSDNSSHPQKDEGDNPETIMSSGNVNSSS

Row | Compound | IC50 [nM] | inhibition at 10 µM [%]
1 | 5-Chloro-naphthalene-2-sulfonic acid (1-{3-ethyl-4-[3-(4-methyl-piperazin-1-yl)-phenoxy]-pyridin-2-yl}-ethyl)-amide [Compound 4] | 121 | –
2 | CCc1c(C(C)NS(=O)(=O)c2ccc3c(Cl)cccc3c2)ccnc1Sc1cccc(N2CCN(C)CC2)c1 (single isomer, unassigned) [Compound 61] | 33 | ≥ 3
3 | CCc1c(Oc2ccc(C)cc2)nc(C)nc1C(C)NS(=O)(=O)c1ccc(Cl)c(Cl)c1 (stereo not drawn) [Compound 1] | – | ≥ 3
4 | CCc1c(Oc2ccc(C)cc2)nc(C)nc1C(C)NS(=O)(=O)c1ccc2c(Cl)cccc2c1 (stereo not drawn) [Compound 2] | – | ≥ 3
5 | CCc1c(C(C)NS(=O)(=O)c2ccc(Cl)c(Cl)c2)ccnc1Oc1cccc(N2CCN(C)CC2)c1 (stereo not drawn) [Compound 3, 3,4-Dichloro-N-(1-{3-ethyl-2-[3-(4-methyl-piperazin-1-yl)-phenoxy]-pyridin-4-yl}-ethyl)-benzenesulfonamide] | 107 | ≥ 3
6 | CCc1c(Oc2cccc(N3CCN(C)CC3)c2)ccnc1C(C)NS(=O)(=O)c1ccc(Cl)c(Cl)c1 (stereo not drawn) [Compound 5] | – | ≥ 3
7 | Cc1c(C(C)NS(=O)(=O)c2ccc(Cl)c(Cl)c2)ccnc1Oc1cccc(N2CCN(C)CC2)c1 (stereo not drawn) [Compound 6] | – | ≥ 3
8 | Cc1c(C(C)NS(=O)(=O)c2ccc3c(Cl)cccc3c2)ccnc1Oc1cccc(N2CCN(C)CC2)c1 (stereo not drawn) [Compound 7] | ≤ 200 | ≥ 3
9 | CC(NS(=O)(=O)c1ccc(Cl)c(Cl)c1)c1ccnc(Oc2cccc(N3CCN(C)CC3)c2)c1 (stereo not drawn) [Compound 8] | – | ≥ 3
10 | CC(NS(=O)(=O)c1ccc2c(Cl)cccc2c1)c1ccnc(Oc2cccc(N3CCN(C)CC3)c2)c1 (stereo not drawn) [Compound 9] | – | ≥ 3
11 | CCCc1c(C(C)NS(=O)(=O)c2ccc(Cl)c(Cl)c2)ccnc1Oc1cccc(N2CCN(C)CC2)c1 (stereo not drawn) [Compound 10] | – | ≥ 3
12 | CCCc1c(C(C)NS(=O)(=O)c2ccc3c(Cl)cccc3c2)ccnc1Oc1cccc(N2CCN(C)CC2)c1 (stereo not drawn) [Compound 11] | ≤ 200 | ≥ 3
13 | CCc1c(C(CC)NS(=O)(=O)c2ccc(Cl)c(Cl)c2)ccnc1Oc1cccc(N2CCN(C)CC2)c1 (stereo not drawn) [Compound 12] | – | ≥ 3
14 | CCc1c(C(CC)NS(=O)(=O)c2ccc3c(Cl)cccc3c2)ccnc1Oc1cccc(N2CCN(C)CC2)c1 (stereo not drawn) [Compound 13] | 47 | ≥ 3
15 | CCc1c(CNS(=O)(=O)c2ccc(Cl)c(Cl)c2)ccnc1Oc1cccc(N2CCN(C)CC2)c1 [Compound 14] | – | ≥ 3
16 | CCc1c(CNS(=O)(=O)c2ccc3c(Cl)cccc3c2)ccnc1Oc1cccc(N2CCN(C)CC2)c1 [Compound 15] | – | ≥ 3
17 | CCc1c(C(C)NS(=O)(=O)c2ccc(Cl)c(Cl)c2)ccnc1Oc1ccc(C)cc1 (stereo not drawn) [Compound 16] | – | ≥ 3
18 | CCc1c(C(C)NS(=O)(=O)c2ccc(Cl)c(Cl)c2)ccnc1Oc1ccc(OC)cc1 (stereo not drawn) [Compound 17] | – | ≥ 3
19 | CCc1c(C(C)NS(=O)(=O)c2ccc(Cl)c(Cl)c2)ccnc1Oc1ccc(Cl)cc1 (stereo not drawn) [Compound 18] | – | ≥ 3
20 | CCc1c(C(C)NS(=O)(=O)c2ccc(Cl)c(Cl)c2)ccnc1Oc1cccc(N2CCOCC2)c1 (stereo not drawn) [Compound 19] | 66 | ≥ 3
21 | CCc1c(C(C)NS(=O)(=O)c2ccc(Cl)c(Cl)c2)ccnc1Oc1ccc2ccncc2c1 (stereo not drawn) [Compound 20] | – | ≥ 3
22 | CCc1c(C(C)NS(=O)(=O)c2ccc(Cl)c(Cl)c2)ccnc1Oc1ccc2ccccc2c1 (stereo not drawn) [Compound 21] | – | ≥ 3
23 | CCc1c(C(C)NS(=O)(=O)c2ccc(Cl)c(Cl)c2)ccnc1Oc1cccc(N(C)C)c1 (stereo not drawn) [Compound 22] | ≤ 200 | ≥ 3
24 | CCc1c(C(C)NS(=O)(=O)c2ccc(Cl)c(Cl)c2)ccnc1OC (stereo not drawn) [Compound 23] | – | ≥ 3
25 | CCc1c(C(C)NS(=O)(=O)c2ccc(Cl)c(Cl)c2)ccnc1OCC(F)(F)F (stereo not drawn) [Compound 24] | – | ≥ 3
26 | CCc1c(C(C)NS(=O)(=O)c2ccc(Cl)c(Cl)c2)ccnc1OCc1ccccc1 (stereo not drawn) [Compound 25] | – | ≥ 3

Row | Compound | IC50 [nM] | inhibition at 10 µM [%]
27 | CCc1c(C(C)NS(=O)(=O)c2ccc(Cl)c(Cl)c2)ccnc1OC(C)C (stereo not drawn) [Compound 26, 3,4-Dichloro-N-[1-(2-isopropoxy-3-ethyl-pyridin-4-yl)-ethyl]-benzenesulfonamide] | – | ≥ 3
28 | CCc1c(C(C)NS(=O)(=O)c2ccc3c(Cl)cccc3c2)ccnc1Oc1cccc(N2CCOCC2)c1 (stereo not drawn) [Compound 27, 5-Chloronaphthalene-2-sulfonic acid {1-[3-ethyl-2-(3-morpholin-4-yl-phenoxy)-pyridin-4-yl]-ethyl}-amide] | 51 | ≥ 3
29 | CCc1c([C@@H](C)NS(=O)(=O)c2ccc(Cl)c(Cl)c2)ccnc1Oc1cccc(N2CCN(C)CC2)c1 [Compound 28, (R)-3,4-Dichloro-N-(1-{3-ethyl-2-[3-(4-methyl-piperazin-1-yl)-phenoxy]-pyridin-4-yl}-ethyl)-benzenesulfonamide] | 49 | ≥ 3
30 | CCc1c([C@H](C)NS(=O)(=O)c2ccc(Cl)c(Cl)c2)ccnc1Oc1cccc(N2CCN(C)CC2)c1 [Compound 29, (S)-3,4-Dichloro-N-(1-{3-ethyl-2-[3-(4-methyl-piperazin-1-yl)-phenoxy]-pyridin-4-yl}-ethyl)-benzenesulfonamide] | – | ≥ 3
31 | CCc1c(C(C)NS(=O)(=O)c2ccc(Cl)c(Cl)c2)ccnc1OC1CCC1 (stereo not drawn) [Compound 30] | – | ≥ 3
32 | CCc1c(C(C)NS(=O)(=O)c2ccc3c(Cl)cccc3c2)ccnc1Oc1cccc(N2CCN(C)CC2)c1 (stereo not drawn) [Compound 31] | 35 | ≥ 3
33 | CCc1c(C(C)NS(=O)(=O)c2ccccc2)ccnc1Oc1cccc(N2CCOCC2)c1 (stereo not drawn) [Compound 32] | – | ≥ 3
34 | CCc1c(C(C)NS(=O)(=O)c2ccccc2C)ccnc1Oc1cccc(N2CCOCC2)c1 (stereo not drawn) [Compound 33] | – | ≥ 3
35 | CCc1c(C(C)NS(=O)(=O)c2cccc(C)c2)ccnc1Oc1cccc(N2CCOCC2)c1 (stereo not drawn) [Compound 34] | – | ≥ 3
36 | CCc1ccc(S(=O)(=O)NC(C)c2ccnc(Oc3cccc(N4CCOCC4)c3)c2CC)cc1 (stereo not drawn) [Compound 35] | – | ≥ 3
37 | CCc1c(C(C)NS(=O)(=O)c2ccc(OC)cc2)ccnc1Oc1cccc(N2CCOCC2)c1 (stereo not drawn) [Compound 36] | – | ≥ 3
38 | CCc1c(C(C)NS(=O)(=O)c2ccc(C(F)(F)F)cc2)ccnc1Oc1cccc(N2CCOCC2)c1 (stereo not drawn) [Compound 37] | – | ≥ 3
39 | CCc1c(C(C)NS(=O)(=O)c2ccc(OC(F)(F)F)cc2)ccnc1Oc1cccc(N2CCOCC2)c1 (stereo not drawn) [Compound 38] | – | ≥ 3
40 | CCc1c(C(C)NS(=O)(=O)c2ccc([N+](=O)[O-])cc2)ccnc1Oc1cccc(N2CCOCC2)c1 (stereo not drawn) [Compound 39] | – | ≥ 3
41 | CCc1c(C(C)NS(=O)(=O)c2ccc(C#N)cc2)ccnc1Oc1cccc(N2CCOCC2)c1 (stereo not drawn) [Compound 40] | – | ≥ 3
42 | CCc1c(C(C)NS(=O)(=O)c2ccc(Cl)cc2)ccnc1Oc1cccc(N2CCOCC2)c1 (stereo not drawn) [Compound 41] | – | ≥ 3
43 | CCc1c(C(C)NS(=O)(=O)c2cccc(Br)c2)ccnc1Oc1cccc(N2CCOCC2)c1 (stereo not drawn) [Compound 42] | – | ≥ 3
44 | CCc1c(C(C)NS(=O)(=O)c2ccccc2F)ccnc1Oc1cccc(N2CCOCC2)c1 (stereo not drawn) [Compound 43] | – | ≥ 3
45 | CCc1c(C(C)NS(=O)(=O)c2ccc(C(C)=O)cc2)ccnc1Oc1cccc(N2CCOCC2)c1 (stereo not drawn) [Compound 44] | – | ≥ 3
46 | CCc1c(C(C)NS(=O)(=O)c2ccc(F)c(Cl)c2)ccnc1Oc1cccc(N2CCOCC2)c1 (stereo not drawn) [Compound 45] | – | ≥ 3
47 | CCc1c(C(C)NS(=O)(=O)c2ccc(C)c(Cl)c2)ccnc1Oc1cccc(N2CCOCC2)c1 (stereo not drawn) [Compound 46] | – | ≥ 3
48 | CCc1c(C(C)NS(=O)(=O)c2ccc(Br)s2)ccnc1Oc1cccc(N2CCOCC2)c1 (stereo not drawn) [Compound 47] | – | ≥ 3
49 | CCc1c(C(C)NS(=O)(=O)c2ccc(Cl)c(Cl)c2Cl)ccnc1Oc1cccc(N2CCOCC2)c1 (stereo not drawn) [Compound 48] | 63 | ≥ 3
50 | CCc1c(C(C)NS(=O)(=O)c2cccnc2)ccnc1Oc1cccc(N2CCOCC2)c1 (stereo not drawn) [Compound 49] | – | ≥ 3
51 | CCc1c(C(C)NS(=O)(=O)c2ccc3ncccc3c2)ccnc1Oc1cccc(N2CCOCC2)c1 (stereo not drawn) [Compound 50] | – | ≥ 3
52 | CCc1c(C(C)NS(=O)(=O)c2cc3ccccc3s2)ccnc1Oc1cccc(N2CCOCC2)c1 (stereo not drawn) [Compound 51] | – | ≥ 3
